From patent US20230050846A1, “TREATMENT OF HEPATIC AND CARDIOVASCULAR DISORDERS” (LIFESEARCH, priority 2019, published 2023)
Peptide text beside a SMILES is read from it. * marks the point of attachment. Palmitoyl = CCCCCCCCCCCCCCCC(=O)*

Key:
[1] = system: C57B/L6J mice fed western-diet; experiment: Western diet-induced hepatic steatosis mouse model; format: in vivo; conditions: ip daily 1 mg/kg/day
Procedure: (§1) Wild-type C57B/L6J male mice were purchased from Janvier Labs (Le Genest Saint Isle, France). Mice were caged in animal rooms under specific pathogen free conditions at the animal facility of Rangueil (Anexplo platform, US006, Toulouse, France) with a light/dark schedule of 12 h/12 h. At the initiation of the dietary intervention, all animals were 8 weeks old and were fed ad libitum with a normal chow diet (#V1535 R/M-H, Ssniff, Germany). All animal experimental procedures were conducted in accordance with institutional guidelines on animal experimentation approved by the local ethical committee of animal care and are conformed to the guidelines from Directive 2010/63/EU of the European Parliament on the protection of animals used for scientific purposes or the NIH guideline.
8 weeks old mice were fed fed western-diet for 4-weeks (Envigo #TD.88137 containing 0.2% cholesterol, 42% kcal from fat, 34% sucrose by weight). For the 2 last weeks of the 4-week period, mice were daily intraperitoneally administrated at 1 mg/kg/day with the peptide of formula (I) or PBS (control group). Following the treatment period, mice were fasted overnight, anesthetized by intra-peritoneal injection of ketamine and xylazine hydrochloride then killed by exsanguination. Body weight, liver triglyceride content, plasma lipids and transaminases were determined at sacrifice.
100 mg of liver tissue were homogenized in 900 μL of phosphate buffer pH 7.4 until complete tissue lysis. Lipids were extracted by mixing 125 μL of lysates with 1 mL of CHCl3:MeOH (2:1). After centrifugation, the chloroform phase was evaporated under nitrogen flux, and the dried residue was solubilized in 200 μL of isopropanol. Triglycerides were measured using commercial kits based on GPO-PAP detection method (Biolabo SA, Maizy, France). Results were expressed as mg of triglycerides/g liver.
Triglycerides and cholesterol levels were determined using commercial colorimetric kits (Biolabo SA, Maizy, France) based on CHOD-PAP and GPO-PAP detection methods, coupling enzymatic reaction and spectrophotometric detection of reaction end products. Alanine-aminotransferase (ALT) and aspartate-aminotransferase (AST) levels were determined using a COBAS-MIRA+ biochemical analyser (Anexplo facility, Toulouse, France).
Blood glucose levels were measured by tail vein sampling with portable glucometer (Accu-check, Roche) 30 min before oral glucose load and at 0, 15, 30, 45, 60, 90 and 120 min after oral glucose load. Plasma insulin concentration was determined 30 min before and 15 min after glucose loading in 5 μL of plasma using an ELISA kit (Mercodia, Uppsala, Sweden) according to the manufacturer's instructions.

[2] = system: C57B/L6J mice fed CDAHFD; experiment: CDAHFD diet-induced NASH associated hepatic fibrosis mouse model; format: in vivo; conditions: sc infusion two weeks, 5 mg/kg BW/day
Procedure: as §1
8 weeks old mice were fed for 6 week a choline-deficient, L-amino acid-defined, high-fat diet (CDAHFD #A06071302, Research Diet, USA) consisting of 60 kcal % fat and 0.1% methionine by weight. For the 2 last weeks of the 6-week period, a group of mice were implanted with an osmotic pump containing the peptide of formula (I). Briefly, 200 μL osmotic pump were filled with 10 mg/mL of the peptide of formula (I) in PBS and were implanted subcutaneously into the mice according to the manufacturer's instructions (Alzet®, model pump #2002), to insure the peptide of formula (I) release at an estimated rate of 0.5 μL/h, which corresponds to an estimated amount of delivery of 5 mg of the peptide of formula (I) per kilogram of body weight per day (5 mg/kg BW/day). The control group was composed of mice that underwent the same chirurgical procedure used for osmotic pump implantation (sham-operated mice).
Liver histology. […] Fibrosis was assessed by Sirius Red staining. […]
Hepatic hydroxyproline was determined by hydrolizing 80-140 mg liver in a 6N HCl solution, overnight, at 110 degrees Celsius. […] Absorbance was measured at 550 nm and the results are expressed as micrograms of hepatic hydroxyproline per mg tissue.

Compound | oral glucose tolerance (OGTT) ([1]; OGTT 10 days after initiation) | basal insulin level ([1]; p<0.05 vs PBS) | plasma HDL-cholesterol (HDL-C) level ([1]; two weeks) | plasma triglycerides level ([1]; two weeks) | liver/body weight ratio ([1]; two weeks, p<0.01 vs PBS) | hepatic triglyceride concentration ([1]; two weeks, p<0.05 vs PBS) | plasma ALT level ([1]; two weeks, p<0.05 vs PBS) | plasma level of total cholesterol ([1]; two weeks, p<0.05 vs PBS) | hepatic steatosis ([1]; two weeks, vs PBS) | collagen deposition (Sirius Red staining) ([2]; p<0.01 vs sham-operated mice) | decrease in the concentration of hydroxyproline content per milligram of liver ([2]; p<0.05 vs sham-operated mice) | CDAHFD diet-induced increase of hepatic fibrosis ([2]; vs sham-operated mice)
CCCCCCCCCCCCCCCC(=O)NCCCC[C@H](NC(=O)[C@H](CCC(=O)O)NC(=O)[C@H](CCCNC(=N)N)NC(=O)[C@H](CO)NC(=O)[C@H](CCC(N)=O)NC(=O)[C@H](C)NC(=O)[C@H](CCCNC(=N)N)NC(=O)[C@H](Cc1ccccc1)NC(=O)[C@H](Cc1ccc(O)cc1)NC(=O)[C@H](CCCNC(=N)N)NC(=O)[C@H](CCC(=O)O)NC(=O)[C@H](CCC(=O)O)NC(=O)[C@H](CCC(=O)O)NC(=O)[C@H](C)NC(=O)[C@H](CCC(N)=O)NC(=O)[C@H](CCC(=O)O)NC(=O)[C@H](CCCNC(=N)N)NC(=O)[C@H](CCCCN)NC(=O)CNC(=O)[C@H](Cc1ccccc1)NC(=O)[C@H](C)NC(=O)CNC(=O)CNC(=O)[C@H](C)NC(=O)[C@H](CCC(=O)O)NC(=O)[C@H](CCCNC(=N)N)NC(=O)[C@@H](NC(=O)[C@H](CO)NC(=O)CNC(=O)[C@H](C)NC(=O)CNC(=O)[C@H](CCCNC(=N)N)NC(C)=O)[C@@H](C)CC)C(N)=O [peptide of formula (II), CH3CO-[SEQ ID NO: 1]-K-[palmitoyl]-NH2] (Ac-RGAGSIREAGGAFGKREQAEEERYFRAQSREK(Palmitoyl)-NH2) | improved | decreased | no effect | no effect | decrease | reduction | significantly reduced | significantly decrease | significantly reduced | – | – | –
Ac-RGAGSIREAGGAFGKREQAEEERYFRAQSRE-NH2 [peptide of formula (I), CH3CO-[SEQ ID NO: 1]-NH2] | – | – | – | – | – | – | – | – | – | less collagen deposition | more than 35% | significantly attenuated
